Reference: ChEMBL document CHEMBL1201862, “PubChem BioAssay data set” (2004)
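Dose response: 5 concentrations. Exposure: 48 h. Format: 96-well plates. Endpoint: linear interpolation; highest concentration if not reached. GI50 = concentration required for 50% inhibition of growth.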 Active and inactive are the calls of the source. No stated cut-off is given here; in the data, active = GI50 up to about 1.1 µM and inactive = higher.

How the values were obtained:
Test in all cases: growth of human tumour cells (NCI), 48 h
A498 = system: A498
CCRF-CEM = system: CCRF-CEM
EKVX = system: EKVX
HCC 2998 = system: HCC 2998
HCT-116 = system: HCT-116
HL-60 = system: HL-60
Hs-578T = system: Hs-578T
IGROV-1 = system: IGROV-1
KM12 = system: KM12
LOX IMVI = system: LOX IMVI
MOLT-4 = system: MOLT-4
NCI-H460 = system: NCI-H460
OVCAR-3 = system: OVCAR-3
RPMI-8226 = system: RPMI-8226
SF-268 = system: SF-268
U-251 = system: U-251
UO-31 = system: UO-31
Malme-3M = system: Malme-3M
SN12C = system: SN12C
HOP-92 = system: HOP-92

Measured: GI50

CCC1(CC)C(=O)OC(=O)C1(CC)CC
inactive: A498 > 100 µM | CCRF-CEM > 100 µM | EKVX > 100 µM | HCC 2998 > 100 µM | HCT-116 > 100 µM | HL-60 > 100 µM | Hs-578T 15.2 µM | IGROV-1 > 100 µM | KM12 > 100 µM | LOX IMVI > 100 µM | MOLT-4 > 100 µM | NCI-H460 > 100 µM | OVCAR-3 > 100 µM | RPMI-8226 > 100 µM | SF-268 > 100 µM | U-251 > 100 µM | UO-31 > 100 µM

C[N+]12C=CC=C1C(N1CCCC1)c1sc(-c3ccc(Cl)cc3)cc12 (centres undefined)
inactive: A498 18.8 µM | CCRF-CEM 17.5 µM | EKVX 22.6 µM | HCC 2998 15.7 µM | HCT-116 16.1 µM | Hs-578T 22.1 µM | IGROV-1 16.9 µM | KM12 17 µM | LOX IMVI 16 µM | MOLT-4 16.9 µM | Malme-3M 15.6 µM | NCI-H460 18.1 µM | OVCAR-3 13.6 µM | RPMI-8226 10.6 µM | SF-268 17.1 µM | SN12C 13.7 µM | U-251 12.1 µM | UO-31 33 µM

CCOC(=O)NNC(=O)NCCNC(=O)NNC(=O)OCC
inactive: A498 > 100 µM | CCRF-CEM > 100 µM | EKVX > 100 µM | HCC 2998 > 100 µM | HCT-116 > 100 µM | HL-60 > 100 µM | Hs-578T > 100 µM | KM12 > 100 µM | LOX IMVI > 100 µM | MOLT-4 > 100 µM | Malme-3M > 100 µM | NCI-H460 > 100 µM | OVCAR-3 > 100 µM | RPMI-8226 > 100 µM | SF-268 > 100 µM | SN12C > 100 µM | U-251 > 100 µM | UO-31 > 100 µM

O=C1c2ccccc2C(=O)c2c1c1cc(O)ccc1n2Cc1ccc(Cl)cc1Cl
inactive: A498 17.2 µM | CCRF-CEM 4.12 µM | HCT-116 6.18 µM | HL-60 46.7 µM | Hs-578T 14 µM | IGROV-1 6.98 µM | KM12 14.4 µM | LOX IMVI 2.9 µM | MOLT-4 15.3 µM | Malme-3M 22.8 µM | NCI-H460 3.63 µM | RPMI-8226 7.18 µM | SF-268 12.9 µM | SN12C 3.88 µM | U-251 3.46 µM | UO-31 19.1 µM

CC1CC(NN)=Nc2ccccc2N1 (centres undefined)
inactive: A498 > 100 µM | CCRF-CEM 40.3 µM | EKVX > 100 µM | HCT-116 > 100 µM | HL-60 60.3 µM | Hs-578T > 100 µM | IGROV-1 > 100 µM | KM12 > 100 µM | MOLT-4 > 100 µM | Malme-3M 16.6 µM | NCI-H460 > 100 µM | OVCAR-3 > 100 µM | RPMI-8226 65.9 µM | SF-268 > 100 µM | SN12C > 100 µM | U-251 > 100 µM | UO-31 > 100 µM

C[C@]12CCC3c4ccc(O)cc4CC[C@H]3C1CC(=O)N(CCN1CCCC1)C2=O (some centres undefined)
inactive: A498 > 10 µM | CCRF-CEM > 10 µM | EKVX > 10 µM | HCC 2998 > 10 µM | HCT-116 > 10 µM | HL-60 > 10 µM | Hs-578T > 10 µM | IGROV-1 > 10 µM | KM12 > 10 µM | LOX IMVI > 10 µM | MOLT-4 > 10 µM | Malme-3M > 10 µM | NCI-H460 > 10 µM | OVCAR-3 > 10 µM | RPMI-8226 > 10 µM | SF-268 > 10 µM | SN12C > 10 µM | U-251 > 10 µM | UO-31 > 10 µM

c1ccc(/N=C2\c3ccccc3CN2c2ccccc2)cc1
inactive: CCRF-CEM > 100 µM | EKVX > 100 µM | HCC 2998 > 100 µM | HCT-116 > 100 µM | HL-60 > 100 µM | HOP-92 46.5 µM | Hs-578T > 100 µM | IGROV-1 > 100 µM | KM12 > 100 µM | LOX IMVI > 100 µM | MOLT-4 > 100 µM | Malme-3M > 100 µM | NCI-H460 > 100 µM | OVCAR-3 > 100 µM | RPMI-8226 > 100 µM | SF-268 > 100 µM | SN12C > 100 µM | U-251 > 100 µM | UO-31 > 100 µM

COc1cccc(C2c3cc4c(cc3OC(N3CCCCC3)C2C)OCO4)c1O (centres undefined)
inactive: CCRF-CEM 2.4 µM | EKVX 14.7 µM | HCC 2998 10.5 µM | HCT-116 4.89 µM | HL-60 2.54 µM | HOP-92 8.18 µM | Hs-578T 3.63 µM | IGROV-1 8.81 µM | KM12 4.47 µM | LOX IMVI 5.21 µM | MOLT-4 3.96 µM | Malme-3M 4.53 µM | NCI-H460 4.13 µM | OVCAR-3 2.93 µM | RPMI-8226 3.21 µM | SF-268 9.71 µM | SN12C 4.69 µM | U-251 3.82 µM | UO-31 12.4 µM

OC(C#CCN1CCCC1)(c1ccccc1)c1ccccc1Cl (centres undefined)
inactive: A498 17.1 µM | CCRF-CEM 33.6 µM | EKVX 48.5 µM | HCC 2998 21.8 µM | HCT-116 30.1 µM | HL-60 26.8 µM | Hs-578T 31 µM | IGROV-1 14.8 µM | KM12 27.5 µM | LOX IMVI 18.7 µM | MOLT-4 33.7 µM | Malme-3M > 10 µM | NCI-H460 20.2 µM | OVCAR-3 82.8 µM | RPMI-8226 39.2 µM | SF-268 44.2 µM | SN12C 43.9 µM | U-251 17.7 µM | UO-31 24.7 µM

Cc1ccc(/C(=C\C(=O)C(=O)NC23CC4CC(CC(C4)C2)C3)Sc2ccccc2)cc1
inactive: A498 > 10 µM | CCRF-CEM 4.75 µM | EKVX > 10 µM | HCC 2998 > 10 µM | HL-60 5.82 µM | Hs-578T > 10 µM | IGROV-1 > 10 µM | KM12 > 10 µM | LOX IMVI > 10 µM | MOLT-4 4.63 µM | Malme-3M > 10 µM | NCI-H460 > 10 µM | OVCAR-3 > 10 µM | RPMI-8226 9.02 µM | SF-268 > 10 µM | SN12C > 10 µM | U-251 > 10 µM | UO-31 > 10 µM

COC1=C(OC)C(=O)C(Cc2c(-c3ccccc3)nc3sc(Cl)cn23)=C(C)C1=O
inactive: A498 20.2 µM | CCRF-CEM 13.7 µM | EKVX 20.7 µM | HCC 2998 24.4 µM | HCT-116 16.4 µM | HL-60 7.91 µM | Hs-578T 18.1 µM | IGROV-1 14.9 µM | KM12 17 µM | LOX IMVI 23.7 µM | MOLT-4 1.96 µM | Malme-3M 16.5 µM | NCI-H460 16 µM | OVCAR-3 16.3 µM | RPMI-8226 13.5 µM | SF-268 18.8 µM | SN12C 16.4 µM | U-251 18.5 µM | UO-31 15.8 µM
